Values quoted from earlier work in patent US20160354348A1, “METHODS FOR PROPHYLATIC APPETITE SUPPRESSION” (Orexigen Therapeutics, Inc., priority 2005, published 2016).
Like-named read-outs stand apart in the source and are kept apart here.

Legend:
[1] = Colosimo & De Michele 1999
[2] = 20-25° C.

| Elimination half-life (T1/2) [1] | Solubility in aqueous acid [2] | t1/2 in erythrocytes (erythrocytes) | Protein bound (in vivo) | Half-life (t1/2) in plasma | Half-life (t1/2) in plasma (listed as Zonisamide) | SMILES |
| --- | --- | --- | --- | --- | --- | --- |
| about 1.5 hours |  |  |  |  |  | N[C@@H](Cc1ccc(O)c(O)c1)C(=O)O [levodopa] |
|  | about 200 mg/ml | about 105 hours | 40% | about 63 hours | 63 to 69 h | NS(=O)(=O)Cc1noc2ccccc12 [zonisamide, 1,2-benzisoxazole-3-methanesulfonamide] |
